From PubChem BioAssay (NCI)
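How tested: cells in 96-well plates exposed to compound for 48 hours at five concentrations. TGI denotes the concentration required for complete inhibition of growth.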

Tests used:
Assay in all cases: DTP human tumour cell line panel, 48 h
EKVX NSCLC = test system: EKVX NSCLC
NCI/ADR-RES ovarian = test system: NCI/ADR-RES ovarian
M14 melanoma = test system: M14 melanoma
SK-MEL-2 melanoma = test system: SK-MEL-2 melanoma
MDA-N = test system: MDA-N
HOP-62 NSCLC = test system: HOP-62 NSCLC
RPMI-8226 leukemia = test system: RPMI-8226 leukemia
MDA-MB-435 = test system: MDA-MB-435
SN12C renal = test system: SN12C renal
SF-539 CNS = test system: SF-539 CNS
HCC-2998 colon = test system: HCC-2998 colon
TK-10 renal = test system: TK-10 renal
DU-145 prostate = test system: DU-145 prostate
K-562 leukemia = test system: K-562 leukemia
MALME-3M melanoma = test system: MALME-3M melanoma
UACC-257 melanoma = test system: UACC-257 melanoma
OVCAR-5 ovarian = test system: OVCAR-5 ovarian
SK-OV-3 ovarian = test system: SK-OV-3 ovarian
IGROV1 ovarian = test system: IGROV1 ovarian
DMS 114 small cell lung = test system: DMS 114 small cell lung

Structure (SMILES)	TGI (EKVX NSCLC) [µM]	TGI (NCI/ADR-RES ovarian) [µM]	TGI (M14 melanoma) [µM]	TGI (SK-MEL-2 melanoma) [µM]	TGI (MDA-N) [µM]	TGI (HOP-62 NSCLC) [µM]	TGI (RPMI-8226 leukemia) [µM]	TGI (MDA-MB-435) [µM]	TGI (SN12C renal) [µM]	TGI (SF-539 CNS) [µM]	TGI (HCC-2998 colon) [µM]	TGI (TK-10 renal) [µM]	TGI (DU-145 prostate) [µM]	TGI (K-562 leukemia) [µM]	TGI (MALME-3M melanoma) [µM]	TGI (UACC-257 melanoma) [µM]	TGI (OVCAR-5 ovarian) [µM]	TGI (SK-OV-3 ovarian) [µM]	TGI (IGROV1 ovarian) [µM]	TGI (DMS 114 small cell lung) [µM]
CCN(CC)C(=S)SNCCc1ccc(S(N)(=O)=O)cc1	40	41.6	23.1	> 86.7	40.6	26.3	38.6	29.6	27.2	28.8	50.6	42.5	33.8	> 100	24.3	32.9	30.4	> 73.1		
CN(N)C(=O)NCCCl	> 100	0.31	> 100	> 100	> 100	> 100	> 100	> 100	> 100	> 100	> 100	> 100	> 100	> 100	> 100	> 100	> 100	> 100	> 100	
Cc1cccc2c(N)c3cccc(C(=O)NCC[N+](C)(C)Cc4sc(N5CCOCC5)nc4[N+](=O)[O-])c3nc12	> 100	23.3	15	45.3	21.8	7.77	> 100	35.2	> 100	10	3.41	37.6	> 100	> 100	24.7	43	16.4	6.19	> 100	
Clc1ccc(OCC2NC3C=CC32)cn1 (centres undefined)	93.7	> 100	> 100	> 100	> 100	> 100	> 100	> 100	> 100	> 100	> 100	> 100	> 100	> 100	> 100	> 100	> 100	> 100	> 100	
O=c1c2cc(-c3ccccc3)cnc2sn1-c1ccc([N+](=O)[O-])cc1	> 100	> 100	> 100	> 100	> 100	81.7	> 100	> 100	> 100	> 100	> 100		> 100	> 100	> 100	> 100	> 100	> 100	> 100	
CC1CCC2c3c([nH]c4ccccc34)C3C(=O)N(C4CCCCC4)C(=O)C3C2C1 (centres undefined)	39.6	> 100	59.3	40.3	> 100	32.7	> 100	> 100	> 100	62.6	> 100	27.1	> 100	47.2	> 100	> 100	> 100	42.5	43.9	
O=C(c1ccc(Cl)cc1)N1N=C(c2ccc(Cl)cc2)CC1(O)c1cc(F)c(Cl)cc1Cl (centres undefined)	59.3	> 100	78.3	39	28.5	76.9	40.3	39.5	73.4	> 100	47.1	> 100	> 100	> 100	> 100	> 100	> 100	> 100	> 100	
Cc1ccc(S(=O)(=Nc2ccccc2)C(C(C)C)C(C)(C)Cl)cc1 (centres undefined)	47.3	> 50	> 50	43.9	> 50	> 50	> 50	38.6	> 50	> 50	> 50	> 50	> 50	> 50	> 50	> 50	> 50	> 50	> 50	
Cc1ccccc1NC(=S)N=Nc1c(O)[nH]c2ccccc12	> 100	> 100	> 100	> 100	> 100	> 100	> 100	> 100	> 100	> 100	> 100	> 100	> 100	> 100	> 100	> 100	> 100	> 100	> 100	
O=C(c1ccc(Cl)cc1)N(C(=S)N1CCN(c2ccccn2)CC1)c1ccccc1			> 100	> 100		> 100	> 100		> 100	> 100		> 100		> 100	> 100	> 100	> 100	> 100	> 100	> 100
CCC(=N\NC(N)=S)/C(C)=N/O	> 100	> 100	> 100	> 100	> 100	> 100	> 100	> 100	> 100	> 100	> 100	> 100	> 100	> 100	> 100	> 100	> 100	> 100	> 100	
O=C(c1ccc(Cl)cc1)N(Cc1cccnc1)C(=S)N(Cc1cccnc1)C(=O)c1ccc(Cl)cc1	> 100	> 100	59.7	49	56.6	> 100	> 100	> 100	48.1	50.4	61.3	> 100	> 100	> 100	> 100	> 100	> 100	> 100		
CC(=O)NC1C(OCc2ccccc2)OC(CO)C(O)C1OCC(=O)NC(C)C(=O)NC(CCC(=O)NCCCCCC(=O)Nc1ccc2c(c1)CN1C(=O)c3ccccc3C1=N2)C(N)=O (centres undefined)	> 100	> 100	> 100	> 100	> 100	> 100	> 100	> 100	> 100	> 100	> 100	> 100	> 100	> 100	> 100	> 100	> 100	> 100	> 100	
